For orientation: IC50 means the concentration that inhibits the measured activity by half. The low end stands for greater potency, the high end for weaker potency.

The source made the active and inactive calls. The rule behind the calls is not given here. Bounds are passed on as bounds.

Data set [1] concerns the target Botulinum neurotoxin type A (Clostridium botulinum, UniProt P0DPI0). As to the kind of experiment: Inhibition of Clostridium botulinum neurotoxin type A light chain by SNAPtide assay.
Data set [2] concerns the target Botulinum neurotoxin type A (Clostridium botulinum) (UniProt P0DPI0). As to the kind of experiment: Inhibition of Clostridium botulinum neurotoxin type A light chain incoulated in mouse Neuro2a cells assessed as reduction in SNAP-25 cleavage at 10 uM incubated for 48 hrs by SDS-PAGE based Western blotting method. It counts as cell-based. Background: A western blot detects proteins with antibodies after separation by electrophoresis.

Data set [3] is described as follows: Toxicity against mouse Neuro2a cells assessed as reduction in cell viability at 10 to 100 uM incubated for 48 hrs. The data set is classed as cell-based. As to conditions: n2a.

Sequence of Botulinum neurotoxin type A (P0DPI0 2-448 limits assumed): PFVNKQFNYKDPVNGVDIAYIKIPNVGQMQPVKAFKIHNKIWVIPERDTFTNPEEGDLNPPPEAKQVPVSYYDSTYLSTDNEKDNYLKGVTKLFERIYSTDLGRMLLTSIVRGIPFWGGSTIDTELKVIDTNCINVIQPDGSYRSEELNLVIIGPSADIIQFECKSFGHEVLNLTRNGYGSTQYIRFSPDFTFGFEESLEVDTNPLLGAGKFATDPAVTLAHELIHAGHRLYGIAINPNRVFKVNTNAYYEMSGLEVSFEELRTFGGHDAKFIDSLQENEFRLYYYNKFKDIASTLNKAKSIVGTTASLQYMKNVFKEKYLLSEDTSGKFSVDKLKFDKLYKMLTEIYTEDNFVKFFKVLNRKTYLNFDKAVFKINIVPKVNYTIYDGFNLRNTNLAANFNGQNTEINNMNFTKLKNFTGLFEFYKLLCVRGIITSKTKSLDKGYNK
Sequence of Botulinum neurotoxin type A (Clostridium botulinum) (P0DPI0 2-448 limits assumed): as above

`Cc1ccc(-c2nc(SCC(=O)N3CCCC[C@@H]3C)c(S(=O)(=O)c3ccccc3)[nH]2)cc1` registered an IC50 in data set [1] of 159 µM.
Same read-out and setting: the figure for `COc1cccc(CN2C(=O)c3ccccc3[C@@H]2C(=O)NC2CCC(C)CC2)c1` (stereo not given in full) is 157 µM.
The molecule `CC[C@@H]1Oc2ccccc2N(CC(=O)NCCCN2CCC(Cc3ccccc3)CC2)C1=O` had an IC50 in data set [1] of 154 µM.
Same read-out and setting: the figure for `O=C(COc1cccc(/C=C2\NC(=O)N(Cc3ccccc3F)C2=O)c1)Nc1ccc(F)cc1` is greater than 50 µM.
Regarding `O=C(COc1ccccc1/C=C1\NC(=O)N(Cc2ccccc2F)C1=O)Nc1ccc(F)cc1`, the inhibition entry in data set [2] was “Active”. For the same molecule, the Activity result in data set [3] is “Non-toxic”. For the same molecule, in data set [1], the IC50 amounted to 22 µM.
Molecule `N=C(N)NCCC[C@H](NC(=O)[C@@H](N)CCCNC(=N)N)C(=O)NCC(=O)N[C@@H](CS)C(=O)O` gave an IC50 in data set [1] of 31 µM.
`O=c1c2cc3c(cc2n(Cc2nc(-c4ccc(C(F)(F)F)cc4)no2)c(=O)n1Cc1nc(-c2ccc(C(F)(F)F)cc2)no1)OCO3` had an IC50 in data set [1] of 16 µM.
Still for that read-out and setting: the figure for `O=C(COc1ccc(/C=C2\NC(=O)N(Cc3ccccc3F)C2=O)cc1)Nc1ccc(F)cc1` is 26 µM.
Regarding `O=c1[nH]c2cc3c(cc2c(=O)n1CCc1nc(-c2ccc(C(F)(F)F)cc2)no1)OCO3`, the inhibition result in data set [2] was “Active”. Further, in data set [3], the Activity entry was “Non-toxic”. In data set [1], this molecule came in with an IC50 of 24 µM.
Molecule `Cc1cc(NC(=S)N(CCCN2CCC[C@@H](C)C2)Cc2cccs2)ccc1Cl` returned an IC50 in data set [1] of 92 µM.
Same read-out and setting: the figure for `COC(=O)c1c(C)nc2n(CCN3CCCCC3)c3ccccc3n12` is 55 µM.

Values taken from ChEMBL document CHEMBL3603798, “Computer-aided identification, synthesis, and biological evaluation of novel inhibitors for botulinum neurotoxin serotype A” (Bioorg Med Chem, 2015).
